The values that follow come from patent US10577363B2, “Substituted piperidine compounds” (EPIZYME, INC., priority 2014, dated 2020).

Experiment [1] deals with T1, SMYD3 (Homo sapiens (Human), UniProt Q9H7B4). The experiment can be described thus: SMYD3 biochemical assay (SPA, 3H-SAM methylation of MEKK2 protein substrate). To be noted: read-out: SMYD3 Biochem IC50*. An outline of the steps: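 Native full-length human SMYD3 (E. coli-expressed, tags removed) was preincubated with compound for 30 min at room temperature in 25 mM Tris-Cl pH 8.0, 1 mM TCEP, 0.005% BSG, 0.005% Tween 20. Reaction was started with 3H-SAM plus GST-MEKK2, quenched with 100 uM unlabeled SAM, and read by SPA scintillation counting.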

Experiment [2] concerns the target T1, SMYD3. As to the kind of experiment: SMYD3 cell assay (Trimethyl-MEKK2 In-Cell Western in 293T/17 cells). In kind it is cell-based. To be noted: read-out: SMYD3 Cell IC50*. An outline of the steps:
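In-Cell Western ratio of trimethyl-Lys260 MEKK2 to anti-flag signal; percent inhibition from DMSO and maximum-inhibition controls, IC50 by non-linear regression, triplicates.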

By IC50 is commonly meant the point on the concentration scale where inhibition reaches its midpoint.

T1 sequence (Q9H7B4 whole entry): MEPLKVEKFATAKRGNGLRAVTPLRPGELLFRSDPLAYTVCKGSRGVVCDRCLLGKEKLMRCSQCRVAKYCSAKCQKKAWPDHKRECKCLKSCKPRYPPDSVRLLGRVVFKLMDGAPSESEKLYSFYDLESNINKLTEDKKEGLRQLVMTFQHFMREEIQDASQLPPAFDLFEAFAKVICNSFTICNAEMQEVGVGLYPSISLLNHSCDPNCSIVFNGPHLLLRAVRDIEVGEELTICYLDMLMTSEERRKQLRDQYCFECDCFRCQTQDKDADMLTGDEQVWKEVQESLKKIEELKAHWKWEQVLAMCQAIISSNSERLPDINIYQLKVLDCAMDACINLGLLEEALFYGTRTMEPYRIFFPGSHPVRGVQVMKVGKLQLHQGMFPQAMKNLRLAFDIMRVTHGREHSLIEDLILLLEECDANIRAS

Turning to `CC(C)CN1C2CCC1CN(S(=O)(=O)N1[C@@H]3CC[C@H]1C[C@@H](NC(=O)c1cc(C4CC4)on1)C3)C2` [compound 866, 5-cyclopropyl-N-((1R,3r,5S)-8-((8-isobutyl-3,8-diazabicyclo[3.2.1]octan-3-yl)sulfonyl)-8-azabicyclo[3.2.1]octan-3-yl)isoxazole-3-carboxamide], the values for the IC50 on SMYD3 [1] and on SMYD3 [2] were 8.63 nM and 201 nM, respectively.

Take `O=C(N[C@H]1C[C@H]2CC[C@@H](C1)N2S(=O)(=O)N1CC2CCC(C1)N2CCc1ccccc1)c1cc(C2CC2)on1` [compound 867, 5-cyclopropyl-N-((1R,3r,5S)-8-((8-phenethyl-3,8-diazabicyclo[3.2.1]octan-3-yl)sulfonyl)-8-azabicyclo[3.2.1]octan-3-yl)isoxazole-3-carboxamide]: the IC50 on SMYD3 [1] was 8.67 nM; at SMYD3 [2] it was 844 nM.

`O=C(N[C@H]1C[C@H]2CC[C@@H](C1)N2S(=O)(=O)N1CCC(NCCCN2CCCC2)CC1)c1cc(C2CC2)on1` [compound 868, 5-cyclopropyl-N-((1R,3r,5S)-8-((4-((3-(pyrrolidin-1-yl)propyl)amino)piperidin-1-yl)sulfonyl)-8-azabicyclo[3.2.1]octan-3-yl)isoxazole-3-carboxamide]: the IC50 on SMYD3 [1] is 8.68 nM; on SMYD3 [2], 310 nM.

`COCCCNC1CCN(S(=O)(=O)N2[C@@H]3CC[C@H]2C[C@@H](NC(=O)c2cc(C4CC4)on2)C3)CC1` [compound 869, 5-cyclopropyl-N-((1R,3r,5S)-8-((4-((3-methoxypropyl)amino)piperidin-1-yl)sulfonyl)-8-azabicyclo[3.2.1]octan-3-yl)isoxazole-3-carboxamide]: the IC50 at SMYD3 [1] was 9.05 nM; at SMYD3 [2], 117 nM.

On to `COCCNC1CCN(S(=O)(=O)N2[C@@H]3CC[C@H]2C[C@@H](NC(=O)c2cc(C4CC4)on2)C3)CC1` [compound 870, 5-cyclopropyl-N-((1R,3r,5S)-8-((4-((2-methoxyethyl)amino)piperidin-1-yl)sulfonyl)-8-azabicyclo[3.2.1]octan-3-yl)isoxazole-3-carboxamide], for which the half-maximal inhibitory concentration (IC50) is 9.34 nM at SMYD3 [1] and 130 nM at SMYD3 [2].

In the case of `CC(C)c1cc(C(=O)N[C@H]2C[C@H]3CC[C@@H](C2)N3S(=O)(=O)[C@H]2CC[C@H](N)CC2)no1` [compound 871, N-((1R,3R,5S)-8-(((1r,4R)-4-aminocyclohexyl)sulfonyl)-8-azabicyclo[3.2.1]octan-3-yl)-5-isopropylisoxazole-3-carboxamide], the IC50 at SMYD3 [1] worked out at 9.38 nM; on SMYD3 [2] it was 86.7 nM.

With `CCN(CC)C1CCN(S(=O)(=O)N2CC[C@H](NC(=O)c3cc(C4CC4)on3)C[C@@H]2C)CC1` [compound 872, 5-cyclopropyl-N-((2S,4S)-1-((4-(diethylamino)piperidin-1-yl)sulfonyl)-2-methylpiperidin-4-yl)isoxazole-3-carboxamide], the half-inhibitory concentration (IC50) was determined as 9.46 nM at SMYD3 [1] and 183 nM at SMYD3 [2].

`C[C@H]1CN(S(=O)(=O)[C@H]2CC[C@@H](N)CC2)CC[C@H]1NC(=O)c1cc(C2CC2)on1` [compound 873, N-((3S,4R)-1-(((1s,4R)-4-aminocyclohexyl)sulfonyl)-3-methylpiperidin-4-yl)-5-cyclopropylisoxazole-3-carboxamide]: the IC50 stood at 9.62 nM at SMYD3 [1] and 169 nM on SMYD3 [2].

Regarding `CN(CCCN1CCCC1)C1CCN(S(=O)(=O)N2[C@@H]3CC[C@H]2C[C@@H](NC(=O)c2cc(C4CC4)on2)C3)CC1` [compound 874, 5-cyclopropyl-N-((1R,3r,5S)-8-((4-(methyl(3-(pyrrolidin-1-yl)propyl)amino)piperidin-1-yl)sulfonyl)-8-azabicyclo[3.2.1]octan-3-yl)isoxazole-3-carboxamide], the IC50 on SMYD3 [1] was determined as 9.87 nM; on SMYD3 [2] it was 237 nM.

For the compound `C[C@H](C1CCN(C)CC1)S(=O)(=O)N1[C@@H]2CC[C@H]1C[C@@H](NC(=O)c1cc(C3CC3)on1)C2` [compound 876, 5-cyclopropyl-N-((1R,3R,5S)-8-(((R)-1-(1-methylpiperidin-4-yl)ethyl)sulfonyl)-8-azabicyclo[3.2.1]octan-3-yl)isoxazole-3-carboxamide], the IC50 at SMYD3 [1] amounted to 10 nM; on SMYD3 [2], 186 nM.

In the case of `C[C@@H]1C[C@@H](NS(=O)(=O)N2[C@@H]3CC[C@H]2C[C@@H](NC(=O)c2cc(C4CC4)on2)C3)CCN1` [compound 877, 5-cyclopropyl-N-((1R,3S,5S)-8-(N-((2R,4S)-2-methylpiperidin-4-yl)sulfamoyl)-8-azabicyclo[3.2.1]octan-3-yl)isoxazole-3-carboxamide], the IC50 at SMYD3 [1] stood at 10 nM; at SMYD3 [2], 176 nM.

Consider `O=C(N[C@H]1C[C@H]2CC[C@@H](C1)N2S(=O)(=O)[C@@H]1CCCCNC1)c1cc(C2CC2)on1` [compound 878, N-((1R,3R,5S)-8-(((R)-azepan-3-yl)sulfonyl)-8-azabicyclo[3.2.1]octan-3-yl)-5-cyclopropylisoxazole-3-carboxamide], for which the IC50 on SMYD3 [1] was 10.1 nM; on SMYD3 [2], 241 nM.

For `CC(C)c1cc(C(=O)N[C@H]2C[C@H]3CC[C@@H](C2)N3S(=O)(=O)CC2CCN(C)CC2)no1` [compound 879, 5-isopropyl-N-((1R,3r,5S)-8-(((1-methylpiperidin-4-yl)methyl)sulfonyl)-8-azabicyclo[3.2.1]octan-3-yl)isoxazole-3-carboxamide], the IC50 on SMYD3 [1] turned out to be 10.7 nM; on SMYD3 [2] it was 206 nM.

For `CN(Cc1ccccc1)C1CCN(S(=O)(=O)N2[C@@H]3CC[C@H]2C[C@@H](NC(=O)c2cc(C4CC4)on2)C3)CC1` [compound 880, N-((1R,3r,5S)-8-((4-(benzyl(methyl)amino)piperidin-1-yl)sulfonyl)-8-azabicyclo[3.2.1]octan-3-yl)-5-cyclopropylisoxazole-3-carboxamide], the IC50 at SMYD3 [1] came out at 10.8 nM; at SMYD3 [2], 455 nM.

In the case of `O=C(N[C@H]1C[C@H]2CC[C@@H](C1)N2S(=O)(=O)N1CC2CCC(C1)N2CCO)c1cc(C2CC2)on1` [compound 881, 5-cyclopropyl-N-((1R,3r,5S)-8-((8-(2-hydroxyethyl)-3,8-diazabicyclo[3.2.1]octan-3-yl)sulfonyl)-8-azabicyclo[3.2.1]octan-3-yl)isoxazole-3-carboxamide], the IC50 on SMYD3 [1] is 10.9 nM; at SMYD3 [2] it was 68.9 nM.

In the case of `C[C@@H](C1CCNCC1)S(=O)(=O)N1[C@@H]2CC[C@H]1C[C@@H](NC(=O)c1cc(C3CC3)on1)C2` [compound 882, 5-cyclopropyl-N-((1R,3S,5S)-8-(((S)-1-(piperidin-4-yl)ethyl)sulfonyl)-8-azabicyclo[3.2.1]octan-3-yl)isoxazole-3-carboxamide], the IC50 is 11.2 nM at SMYD3 [1] and 85.6 nM at SMYD3 [2].

For the compound `O=C(N[C@H]1C[C@H]2CC[C@@H](C1)N2S(=O)(=O)[C@H]1CCCCNC1)c1cc(C2CC2)on1` [compound 883, N-((1R,3S,5S)-8-(((S)-azepan-3-yl)sulfonyl)-8-azabicyclo[3.2.1]octan-3-yl)-5-cyclopropylisoxazole-3-carboxamide], the IC50 came out at 12 nM on SMYD3 [1] and 128 nM on SMYD3 [2].

For the compound `O=C(N[C@H]1C[C@H]2CC[C@@H](C1)N2S(=O)(=O)NC1CCN[C@@H](Cc2ccccc2)C1)c1cc(C2CC2)on1` (stereo partly drawn) [compound 884, N-((1R,3S,5S)-8-(N-((2S)-2-benzylpiperidin-4-yl)sulfamoyl)-8-azabicyclo[3.2.1]octan-3-yl)-5-cyclopropylisoxazole-3-carboxamide], the IC50 stood at 12.1 nM at SMYD3 [1] and 283 nM at SMYD3 [2].

With `CN[C@H]1CC[C@H](S(=O)(=O)N2CC[C@@H](NC(=O)c3cc(C4CC4)on3)[C@@H](C)C2)CC1` [compound 885, 5-cyclopropyl-N-((3S,4R)-3-methyl-1-(((1r,4S)-4-(methylamino)cyclohexyl)sulfonyl)piperidin-4-yl)isoxazole-3-carboxamide], the IC50 at SMYD3 [1] amounted to 12.1 nM; at SMYD3 [2] it was 157 nM.

Consider `C[C@H]1C[C@@H](NS(=O)(=O)N2[C@@H]3CC[C@H]2C[C@@H](NC(=O)c2cc(C4CC4)on2)C3)CCN1` [compound 886, 5-cyclopropyl-N-((1R,3S,5S)-8-(N-((2S,4S)-2-methylpiperidin-4-yl)sulfamoyl)-8-azabicyclo[3.2.1]octan-3-yl)isoxazole-3-carboxamide], for which the IC50 at SMYD3 [1] was determined as 12.1 nM; on SMYD3 [2], 205 nM.

For `CC1CN(S(=O)(=O)N2[C@@H]3CC[C@H]2C[C@@H](NC(=O)c2cc(C4CC4)on2)C3)CCN1` (stereo partly drawn) [compound 887, 5-cyclopropyl-N-((1R,3r,5S)-8-((3-methylpiperazin-1-yl)sulfonyl)-8-azabicyclo[3.2.1]octan-3-yl)isoxazole-3-carboxamide], the IC50 amounted to 12.2 nM on SMYD3 [1] and 87.8 nM on SMYD3 [2].

On to `COCCCN1C2CCC1CN(S(=O)(=O)N1[C@@H]3CC[C@H]1C[C@@H](NC(=O)c1cc(C4CC4)on1)C3)C2` [compound 888, 5-cyclopropyl-N-((1R,3r,5S)-8-((8-(3-methoxypropyl)-3,8-diazabicyclo[3.2.1]octan-3-yl)sulfonyl)-8-azabicyclo[3.2.1]octan-3-yl)isoxazole-3-carboxamide], for which the IC50 on SMYD3 [1] amounted to 12.4 nM; on SMYD3 [2] it was 118 nM.

On to `CCN(CC)C1CCN(S(=O)(=O)N2[C@@H]3CC[C@H]2C[C@@H](NC(=O)c2cc(C4CC4)on2)C3)CC1` [compound 889, 5-cyclopropyl-N-((1R,3r,5S)-8-((4-(diethylamino)piperidin-1-yl)sulfonyl)-8-azabicyclo[3.2.1]octan-3-yl)isoxazole-3-carboxamide], for which the IC50 on SMYD3 [1] came out at 12.7 nM; on SMYD3 [2], 216 nM.

For `CC1CC(N)CCN1S(=O)(=O)N1CC[C@H](NC(=O)c2cc(C3CC3)on2)C[C@@H]1C` (stereo partly drawn) [compound 890, N-((2S,4S)-1-((4-amino-2-methylpiperidin-1-yl)sulfonyl)-2-methylpiperidin-4-yl)-5-cyclopropylisoxazole-3-carboxamide], the half-maximal inhibitory concentration (IC50) at SMYD3 [1] stood at 13.2 nM; at SMYD3 [2], 239 nM.
